Data reported in patent publication US6703388B2, “Nitrogen-containing tricyclic compounds and drugs containing the same” (Eisai Co., Ltd., priority 1996, dated 2004).
Where two headings read alike, the source gives them in different places.

Key:
[1] = test system: RBL-2H3 cells; assay: Inhibition of serotonin liberation from IgE-sensitized RBL-2H3 cells after antigen stimulation; assay type: cell-based, rat; details: Rattus norvegicus
Excerpt: IgE-sensitized RBL-2H3 cells (i.e., a cell line originating in rat cells) release and produce not only histamine and serotonin but also cytokines such as TNF α and prostaglandins which are inflammatory mediators after stimulation with IgE sepecific antibody. In this experimental system, inhibitory effects on various mediators release were examined by using serotonin as an indication.
The cells were beforehand labeled with [^3H]-labeled serotonin and, at the same time, sensitized with the IgE antibody. After incubating with the compounds of the present invention, the cells were stimulated with the specific antigen. Then the inhibitory activity of each compound was calculated from the amount of the [^3H]-labeled serotonin thus liberated into the medium and the amount of [^3H]-labeled serotonin liberated when no compound of the present invention was added.

[2] = test system: human basophils; assay: Inhibition of mediator (histamine, peptide leukotriene) liberation from human basophils stimulated with mite antigen; assay type: cell-based; details: enzyme immunoassay
Protocol: 6 ml of 6% dextran (for separating leukocytes, having a high molecular weight) was added to 20 ml of heparinized blood. After stirring well, the resulting mixture was allowed to stand at 37° C. for 30 min and thus erythrocytes were precipitated. The upper layer was taken up and phosphate buffered saline (D-PBS) was added thereto followed by centrifugation at 185 g for 8 minutes to give a crude leukocyte fraction. These cells were subjected to hypotonic hematolysis and then suspended in D-PBS(+) containing 0.1%-BSA. The resulting suspension was used in the subsequent experiment as the leukocyte fraction containing basophils. 0.4 ml of this cell suspension was preliminarily heated to 37° C. for 5 min and then 0.05 ml of a specimen solution was added thereto followed by a pretreatment at 37° C. for 15 min. Next, 0.05 ml of a mite antigen solution was added thereto to induce an antigen-antibody reaction. After 10 min, the reaction was ceased by ice-cooling. Then the reaction mixture was centrifuged at 185 g for 10 min and histamine and peptide leukotrienes in the resulting supernatant were determined by using enzyme immunoassay kits. From the results of the assay, the activities of the acridone derivatives of inhibiting the liberation of histamine and peptide leukotriene were determined.

[3] = [3H]-serotonin release, IgE-sensitized RBL-2H3 cells, antigen stimulation, read-out: IC50 (μM) in serotonin liberation from RBL-2H3 cells
[4] = histamine, read-out: IC50 (μM) in mediator liberation from human basophils: histamine
[5] = peptide leukotriene, read-out: IC50 (μM) in mediator liberation from human basophils: leukotriene
[6] = RBL-2H3, read-out: IC50 (μM) in serotonin liberation from RBL-2H3 cells

Row | Compound | IC50 [1, 3] [µM] | further results
1 | Cc1ccc2c(c1C)N(Cc1cccc(CN)n1)c1ccccc1S2 [Example 3] | 10 | –
2 | Cc1ccc2c(c1C)N(CCCN(C)Cc1ccccc1O)c1cc(C(F)(F)F)ccc1[S+]2[O-] (centres unmarked) [Example 187] | – | IC50 [2, 4]: 10 to 30 µM; IC50 [2, 5]: 3 to 10 µM
3 | Cc1ccc2c(=NOCc3ccccn3)c3ccccc3n(CCCNCc3ccccc3)c2c1C [Example 240] | 5 | –
4 | Cc1ccc2c(c1C)N(CCCNC(C(=O)O)c1ccccc1)c1ccccc1[S+]2[O-] (centres unmarked) [Example 133] | 1 | –
5 | COc1ncc(CNCCCN2c3ccccc3[S+]([O-])c3ccc(C)c(C)c32)c(OC)n1 (centres unmarked) [Example 78] | 4 | –
6 | Cc1ccc2c(c1C)N(CCCNCc1ccccc1Cl)c1ccccc1[S+]2[O-] (centres unmarked) [Example 52] | 3 | –
7 | Cc1ccc2c(c1C)N(CCCn1cnc(N)n1)c1ccccc1[S+]2[O-] (centres unmarked) [Example 119] | 6 | –
8 | Cc1ccc2c(=NOCC(=O)O)c3ccccc3n(CCCN)c2c1C [Example 215] | 3 | –
9 | Cc1ccc2c(c1C)N(CCCNCc1ccc(F)cc1F)c1cc(CCO)ccc1[S+]2[O-] (centres unmarked) [Example 95] | 3 | –
10 | Cc1ccc2c(c1C)N(Cc1cccc(CNCc3ccccc3)n1)c1ccccc1S2 [Example 6] | 10 | –
11 | Cc1ccc2c(c1C)N(CCCN1CCC(O)CC1)c1ccccc1[S+]2[O-] (centres unmarked) [Example 106] | 2 | –
12 | Cc1cccc(CNCCCN2c3ccccc3[S+]([O-])c3ccc(C)c(C)c32)n1 (centres unmarked) [Example 71] | 8 | –
13 | Cc1ccc2c(c1C)N(CCN1CCC(O)(c3ccccc3)CC1)c1ccccc1[S+]2[O-] (centres unmarked) [Example 192] | – | IC50 [1, 6]: 5 µM
14 | Cc1ccc2c(c1C)N(CCCNCc1ccccc1)c1ccccc1C(=O)N2C [Example 260] | 6 | –
15 | Cc1ccc2c(c1C)N(CCCN)c1ccccc1S2 [Example 1, 1,2-Dimethyl-10-(3-aminopropyl)phenothiazine] | 5 | –
16 | Cc1ccc2c(c1C)N(CCN1CCN(Cc3ccccc3)CC1)c1ccccc1[S+]2[O-] (centres unmarked) [Example 191, 1,2-Dimethyl-10-[2-(4-benzylpiperazin-1-yl)ethyl]-phenothiazine-5-oxide] | 3 | –
17 | Cc1ccc2c(c1C)N(CCCNCc1nccs1)c1ccccc1[S+]2[O-] (centres unmarked) [Example 120] | 3 | –
18 | CCC/C=C1/c2ccccc2N(CCCNCc2ccccc2)c2c1ccc(C)c2C [Example 207] | 15 | –
19 | Cc1ccc2c(=NO)c3ccccc3n(CCCNCc3ccccc3)c2c1C [Example 230] | 6 | –
20 | COc1ccsc1CNCCCN1c2ccccc2[S+]([O-])c2c(C)cc(C)c(C)c21 (centres unmarked) [Example 101] | 5 | –

Row | Compound | IC50 [1, 3] [µM] | further results
21 | Cc1ccc2c(c1C)N(CCCN1CCOCC1)c1ccccc1[S+]2[O-] (centres unmarked) [Example 103, 1,2-Dimethyl-10-[3-(4-morpholino)propyl]phenothiazine-5Oxide] | < 3 | –
22 | Cc1ccc2c(=NOC(C)C#N)c3ccccc3n(CCCNCc3ccccc3)c2c1C (centres unmarked) [Example 253] | 10 | –
23 | Cc1ccc2c(c1C)N(CCCN)c1cc(CCO)ccc1[S+]2[O-] (centres unmarked) [Example 9] | < 1 | –
24 | Cc1ccc2c(c1C)N(CCCN(C)Cc1cccc(Cl)c1O)c1ccccc1[S+]2[O-] (centres unmarked) [Example 167] | – | IC50 [2, 4]: 10 µM; IC50 [2, 5]: 3 µM
25 | Cc1ccc2c(c1C)N(CCCNCc1ncc[nH]1)c1ccccc1[S+]2[O-] (centres unmarked) [Example 63] | 3 | –
26 | Cc1ccc2c(c1C)N(CCCNCc1ccccc1)c1ccccc1N(C)C2=O [Example 259] | 4 | –
27 | COc1ccc(O)c(CNCCCN2c3ccccc3[S+]([O-])c3ccc(C)c(C)c32)c1O (centres unmarked) [Example 38] | 8 | –
28 | Cc1ccc2c(c1C)N(CCCN)c1cc(Br)ccc1S2(=O)=O [Example 197] | 8 | –
29 | Cc1ccc2c(c1C)N(CCCNCc1ccccn1)c1ccccc1[S+]2[O-] (centres unmarked) [Example 70] | 2 | –
30 | CCCON=c1c2ccccc2n(CCCN)c2c(C)c(C)ccc12 [Example 211] | 10 | –
31 | Cc1ccc2c(c1C)N(CCCNCc1ncco1)c1ccccc1[S+]2[O-] (centres unmarked) [Example 72] | 8 | –
32 | CCOC(=O)/C(C)=C/c1cc(OC)c(CNCCCN2c3ccccc3[S+]([O-])c3ccc(C)c(C)c32)s1 (centres unmarked) [Example 76] | 3 | –
33 | Cc1ccc2c(c1C)N(CCCNCc1[nH]cnc1C)c1ccccc1[S+]2[O-] (centres unmarked) [Example 74] | 2 | –
34 | Cc1ccc2c(c1C)N(CCCN)c1ccccc1C(=O)N2C [Example 258] | 6 | –
35 | COc1cc(CNCCN2c3ccccc3[S+]([O-])c3ccc(C)c(C)c32)cc(OC)c1O (centres unmarked) [Example 149] | 8 | –
36 | Cc1ccc2c(=NOCCC(N)=O)c3ccccc3n(CCCNCc3ccccc3)c2c1C [Example 251] | 5 | –
37 | Cc1ccc2c(=NO)c3ccccc3n(CCCN)c2c1C [Example 209] | 15 | –
38 | Cc1ccc2c(c1C)N(CCCN1CCC(N(C)C)CC1)c1ccccc1[S+]2[O-] (centres unmarked) [Example 107] | 2 | –
39 | Cc1ccc2c(=NOC(C)C)c3ccccc3n(CCCN)c2c1C [Example 223] | 10 | –
40 | COc1cc2c(c(C)c1C)N(CCCNCc1ccccc1)c1ccccc1[S+]2[O-] (centres unmarked) [Example 99] | 5 | –

Row | Compound | IC50 [1, 3] [µM] | further results
41 | COCOc1cccnc1CNCCN1c2ccccc2[S+]([O-])c2ccc(C)c(C)c21 (centres unmarked) [Example 160] | 2 | –
42 | Cc1ccc2c(=NOCCC(=O)O)c3ccccc3n(CCCN)c2c1C [Example 216] | 3 | –
43 | Cc1ccc2c(=NOCCc3ccccn3)c3ccccc3n(CCCN)c2c1C [Example 212] | 6 | –
44 | CCON=c1c2ccccc2n(CCCNC(C)c2ccccc2)c2c(C)c(C)ccc12 (centres unmarked) [Example 255] | 8 | –
45 | Cc1ccc2c(c1C)N(CCCN1CCN(Cc3ccccn3)CC1)c1ccccc1[S+]2[O-] (centres unmarked) [Example 112] | 1 | –
46 | Cc1ccc2c(=NOC(C)C(=O)O)c3ccccc3n(CCCN)c2c1C (centres unmarked) [Example 217] | 2 | –
47 | Cc1ccc2c(c1C)N(CCCNc1nc[nH]n1)c1ccccc1[S+]2[O-] (centres unmarked) [Example 118] | 10 | –
48 | Cc1ccc2c(=NOCC(=O)O)c3ccccc3n(CCCNCc3ccccc3)c2c1C [Example 234] | < 3 | –
49 | Cc1ccc2c(c1C)N(CCCNCc1cccc(C(=O)O)c1O)c1ccccc1[S+]2[O-] (centres unmarked) [Example 31] | – | IC50 [1, 6]: 0.5 µM
50 | Cc1ccc2c(c1C)N(Cc1cccc(CNCc3ncc[nH]3)n1)c1ccccc1S2 [Example 7] | 8 | –
51 | C#CCNCCCN1c2ccccc2[S+]([O-])c2ccc(C)c(C)c21 (centres unmarked) [Example 126] | 3 | –
52 | Cc1ccc2c(c1C)N(CCCN1CCN(C(C(=O)O)c3ccccc3)CC1)c1ccccc1[S+]2[O-] (centres unmarked) [Example 111] | 2 | –
53 | Cc1ccc2c(c1C)N(CCCNCc1cccc(-c3nnn[nH]3)c1)c1ccccc1[S+]2[O-] (centres unmarked) [Example 57] | 2 | –
54 | Cc1ccc2c(c1C)N(CCCN(C)Cc1cc(Cl)cc(Cl)c1O)c1ccccc1[S+]2[O-] (centres unmarked) [Example 172] | 3 | –
55 | CCCON=c1c2ccccc2n(CCCNCc2ccccc2)c2c(C)c(C)ccc12 [Example 232] | 10 | –
56 | Cc1ccc2c(=NOCCC(=O)O)c3ccccc3n(CCCN(C)Cc3ccccc3)c2c1C [Example 254] | 12 | –
57 | COc1cc(C(N)=O)sc1CNCCCN1c2ccccc2[S+]([O-])c2ccc(C)c(C)c21 (centres unmarked) [Example 79] | 2 | –
58 | Cc1ccc2c(c1C)N(CCCN)c1ccccc1N(C)C2=O [Example 257] | 12 | –
59 | COC(=O)Cc1cccc2c1[S+]([O-])c1ccc(C)c(C)c1N2CCCNCc1ccccc1 (centres unmarked) [Example 261] | 10 | –
60 | Cc1ccc2c(c1C)N(CCNc1ccccc1O)c1ccccc1[S+]2[O-] (centres unmarked) [Example 194] | 10 | –
